{"source": "patent US6551774B1", "about": "“Diagnostic methods for conditions associated with elevated cellular levels of telomerase activity” (Board of Regents, The University of Texas System, priority 1992, dated 2003)", "key": {"[1]": {"target": "T1, Tetrahymena thermophila telomerase (Tetrahymena thermophila, UniProt O77448)", "T1 construct": "A standard assay contained 50% by volume of heparin-agarose purified telomerase; endogenous in cells; host or cells: Tetrahymena thermophila cell extracts, heparin-agarose purified", "T1 sequence (O77448 1-1117)": "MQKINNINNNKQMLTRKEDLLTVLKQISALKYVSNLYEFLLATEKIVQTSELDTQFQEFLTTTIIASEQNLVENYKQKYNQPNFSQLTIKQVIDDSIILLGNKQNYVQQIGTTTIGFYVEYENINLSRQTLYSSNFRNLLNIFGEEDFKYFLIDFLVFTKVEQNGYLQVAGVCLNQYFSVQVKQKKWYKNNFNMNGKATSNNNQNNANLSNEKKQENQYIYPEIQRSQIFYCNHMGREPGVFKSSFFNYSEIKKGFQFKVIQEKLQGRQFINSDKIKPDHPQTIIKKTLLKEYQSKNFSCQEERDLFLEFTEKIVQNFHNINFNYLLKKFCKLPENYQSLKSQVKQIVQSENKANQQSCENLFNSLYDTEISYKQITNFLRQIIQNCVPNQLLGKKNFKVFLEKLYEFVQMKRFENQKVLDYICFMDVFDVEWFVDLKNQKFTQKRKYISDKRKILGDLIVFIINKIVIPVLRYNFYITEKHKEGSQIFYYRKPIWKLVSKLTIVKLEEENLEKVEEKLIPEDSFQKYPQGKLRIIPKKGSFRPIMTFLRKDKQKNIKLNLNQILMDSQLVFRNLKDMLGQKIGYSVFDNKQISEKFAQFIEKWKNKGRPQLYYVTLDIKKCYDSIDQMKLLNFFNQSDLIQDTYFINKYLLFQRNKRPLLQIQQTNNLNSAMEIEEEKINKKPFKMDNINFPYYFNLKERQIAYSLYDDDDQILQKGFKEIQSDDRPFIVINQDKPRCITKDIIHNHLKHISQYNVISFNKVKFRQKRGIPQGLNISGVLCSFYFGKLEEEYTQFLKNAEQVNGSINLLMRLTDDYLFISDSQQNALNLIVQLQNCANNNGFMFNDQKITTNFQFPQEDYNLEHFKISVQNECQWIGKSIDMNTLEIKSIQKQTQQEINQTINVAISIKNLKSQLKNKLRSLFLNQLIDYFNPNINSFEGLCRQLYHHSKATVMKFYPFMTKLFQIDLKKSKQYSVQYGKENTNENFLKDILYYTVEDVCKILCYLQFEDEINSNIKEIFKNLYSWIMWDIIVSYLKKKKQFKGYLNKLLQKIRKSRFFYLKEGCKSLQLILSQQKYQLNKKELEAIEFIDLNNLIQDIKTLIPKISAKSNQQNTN", "T1 sequence (W7X6T2 1-542 partner)": "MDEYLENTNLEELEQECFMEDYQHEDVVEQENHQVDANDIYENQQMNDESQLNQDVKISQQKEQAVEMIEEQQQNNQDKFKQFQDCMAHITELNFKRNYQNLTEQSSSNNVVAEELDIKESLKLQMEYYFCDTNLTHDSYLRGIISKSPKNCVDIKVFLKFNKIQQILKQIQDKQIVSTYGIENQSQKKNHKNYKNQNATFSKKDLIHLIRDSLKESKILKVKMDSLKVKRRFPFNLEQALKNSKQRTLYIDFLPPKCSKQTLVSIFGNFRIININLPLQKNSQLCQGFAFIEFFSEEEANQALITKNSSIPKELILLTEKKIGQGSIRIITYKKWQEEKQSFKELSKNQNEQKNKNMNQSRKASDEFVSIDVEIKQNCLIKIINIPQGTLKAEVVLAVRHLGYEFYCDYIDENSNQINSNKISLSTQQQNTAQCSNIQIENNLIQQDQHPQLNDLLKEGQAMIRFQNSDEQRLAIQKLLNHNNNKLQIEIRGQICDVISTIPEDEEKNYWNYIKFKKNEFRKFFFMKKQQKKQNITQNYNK", "experiment": "Tetrahymena telomerase in vitro assay (incorporation of 32P label, gel of products)", "assay_type": "biochemical", "settings": "for position on the telomerase RNA template of strongest chain termination: template residues numbered 1 to 9 (5′ to 3′); for Km: from competition of unlabeled with 32P-labeled nucleotide; for effect on the telomerase reaction: dideoxynucleoside triphosphates", "procedure": "AZT-triphosphate was obtained from Burroughs Wellcome, N.C. Ara-G-triphosphate was purchased from Calbiochem and ddNTPs from Sigma. Reaction mixes were kept on ice until ready for use, and then mixed into tubes containing analog for incubation at 30° C. Reaction times were thirty minutes. […] Identical reactions were run without primers as controls. […] Incorporation of ^32P label from either ^32P-TTP or ^32P-dGTP was measured to monitor the reaction rate.\nThe standard telomerase assay used in this example consists of incorporation of dGTP and TTP substrates, one triphosphate ^32P-labeled, into synthesized DNA in the reaction shown in FIG. 18A. […] Incorporation of ^32P label from either ^32P-TTP or ^32P-dGTP was measured to monitor the reaction rate, and the distributions of elongation products were analyzed by denaturing polyacrylamide gel electrophoresis."}, "Tetrahymena cells [2]": {"test_system": "Tetrahymena cells", "experiment": "Progeny formation (cycloheximide resistance) of Tetrahymena conjugated in the presence of analog", "assay_type": "cell-based, Tetrahymena thermophila", "settings": "for % CHX-R: 0.017 mM analog (head prints MM)", "procedure": "For analysis of cycloheximide (CHX) sensitivity of cells conjugated in the presence of analog, 50 ml cultures of each cell type were grown overnight in 2% PPYS, starved in Dryl's for 18 hours, mated (5×10^5 cells/ml) for 6 hours, then analog was added. Cells were allowed to complete mating in the presence of the analog. Twenty-four hours after mixing, cells were diluted in Dryl's solution, counted and plated at 1 cell per well of 96-well plates in 1% PPYS without analog. Cells were grown for 4 days in a humid chamber at 30° C., without shaking. Cells were then replica plated into 1% PPYS plus 15 μg/ml cycloheximide, allowed to grow for four days before scoring, and percent of CHX-resistant wells was calculated. Because generation of progeny expressing the cycloheximide marker requires successful production of a new macronucleus, cells whose macronuclear development was disrupted by the analog are killed in CHX.\nThis process involves de novo formation of new macronuclear telomeres in the progeny cells. Macronuclear development in ciliated protozoans such as Tetrahymena involves developmentally programmed, site-specific fragmentation of germline chromosomes into linear subchromosomes, whose ends are healed by de novo addition of telomeres. […] Because of the immediate requirement for telomere addition to fragmented DNA, it is possible that the latter process might be more sensitive to telomerase inhibition than telomere maintenance during vegetative growth. To test whether nucleoside analogs cause inhibition of macronuclear development due to a disruption of telomere formation, we mated two strains of Tetrahymena which are sensitive to cycloheximide, but whose progeny after mating are resistant to cycloheximide. Synchronized mated cells were treated with AZT at concentrations ranging from 10 μM to 5 mM for a period beginning just prior to when macronuclear development begins and continuing during macronuclear development (the period 6-24 hours after mating was initiated). […] In attempts to maximize the effect of AZT, cells were either refed at 6 hrs with 2% PPYS or Isobroth, or starved until 24 hrs (the duration of the AZT treatment). Such starvation arrests macronuclear development at an intermediate stage. When refed, macronuclear development would then be forced to proceed in the presence of the AZT. Control, unmated parental cells were also plated and exposed to drug."}, "Tetrahymena cells [3]": {"test_system": "Tetrahymena cells", "experiment": "Telomere length in vegetatively grown Tetrahymena by Southern blot", "assay_type": "cell-based, Tetrahymena thermophila", "settings": "100 μM and 1 mM in Isobroth, after 5 days (16 generations)", "procedure": "For analysis of macronuclear DNA from cultures containing the nucleoside analog AZT (Sigma), or controls lacking analog, at various timepoints during vegetative divisions, cells from stationary stock cultures were inoculated into 25 ml thymine-deficient Iso-sensitest broth (‘Isobroth’, Oxoid USA) in 250 ml flasks. Cultures were incubated at 30° C. with shaking (100 rpm) for 48 hours. Cells were counted and plated at 1000 cells/1.5 ml in 24-well plates (Falcon) and grown at 30° C., without shaking, for 48 hours. 5 μl of these log phase cells were used to inoculate 1 ml cultures (Isobroth) containing varied concentrations of nucleoside analog. Thereafter, every 2-4 days cells were transferred, either 5 μl per well, or 1-3 μl using a multi-pronged replicator into fresh 1 ml broth containing AZT. Remaining cells were pelleted and stored at −80° C. until processed for DNA analysis.\nFor analysis of macronuclear DNA from vegetative cultures containing the nucleoside analogs Ara-G (Calbiochem), ddG (Calbiochem), or ddI (Calbiochem), or controls lacking analog, stock cultures were grown overnight in 2% PPYS as described. Cells were counted and plated at 100 cells/2 ml in 2% PPYS containing varied amounts of analog, 1% DMSO (Fisher) (as a control for ddG and Ara-G), or 2% PPYS alone. Cells were replica plated into fresh medium every 2-6 days, and remaining cells were pelleted and stored at −80° C. until processed for DNA analysis.\nFor analysis of macronuclear DNA from vegetative cultures containing d4T (Sigma) or control lacking the analog, stock cultures (SB210 VI) were grown overnight in Isobroth as described. Cells were then counted and duplicate cultures inoculated at 500 cells/5 ml Isobroth in 50 ml conical tubes, and grown at 30° C., shaking 80 rpm. 500-2000 cells were transfered to fresh broth every 2-4 days, and the remainder pelleted and stored at −80° C. until processed for DNA analysis.\nRestriction digests, agarose gel electrophoresis, transfer of DNA to Nytran filters (Schleicher and Schuell), and hybridization with ^32P-nick-trapplated or random-primed probes were carried out using standard procedures (Maniatis et.al. 1989). Telomere length was analyzed as described previously for Tetrahymena [Larson 50 Cell, 477, 1987].\nTelomere lengths in cells grown in the presence of the different analogs were monitored by Southern blot analysis of DNA samples extracted at a series of time points during the subculturings. The telomeres of cells grown vegetatively in 1 and 5 mM AZT in 2% PPYS medium were reproducibly shortened by up to an average of 170 base pairs compared with the control cultures grown in 2% PPYS in the absence of the drug (FIG. 21A and B). This shortening of telomeres occured in a concentration-dependent manner (FIG. 21B), with at least 50% of the maximal shortening effect occurring by 10 μM AZT, the lowest concentration tested."}}, "note": "Structures can show the parent of a compound that is named as a salt. Where two headings read alike, the source gives them in different places.", "data": [{"smiles": "O=c1[nH]cnc2c1ncn2[C@H]1CC[C@@H](COP(=O)(O)OP(=O)(O)OP(=O)(O)O)O1", "note": "[ddITP, dideoxyinosine triphosphate]", "values": [{"measurement": "IC50", "setting": "[1]", "result": 3, "unit": "µM"}, {"measurement": "position on the telomerase RNA template of strongest chain termination", "setting": "[1]", "result": 5}]}, {"smiles": "Cc1cn([C@H]2C[C@H](O)[C@@H](COP(=O)(O)OP(=O)(O)OP(=O)(O)O)O2)c(=O)[nH]c1=O", "note": "[TTP]", "values": [{"measurement": "Km", "setting": "[1]", "result": "~5", "unit": "µM"}]}, {"smiles": "Nc1ccn([C@H]2CC[C@@H](COP(=O)(O)OP(=O)(O)OP(=O)(O)O)O2)c(=O)n1", "note": "[ddCTP]", "values": [{"measurement": "effect on the telomerase reaction", "setting": "[1]", "result": "no significant effects"}]}, {"smiles": "Nc1nc2c(ncn2COCCO)c(=O)[nH]1", "note": "[Acyclo-G, Acycloguanosine]", "values": [{"measurement": "% CHX-R", "setting": "Tetrahymena cells [2]; first block for the analog", "result": 75, "unit": "%"}, {"measurement": "% CHX-R", "setting": "Tetrahymena cells [2]; second block for the analog", "result": 69, "unit": "%"}, {"measurement": "# CHX-R", "setting": "Tetrahymena cells [2]; 0.017 mM analog, first block for the analog, number of cycloheximide-resistant wells", "result": 80}, {"measurement": "irreversible disruption of macronuclear development", "setting": "Tetrahymena cells [2]; analog present during conjugation", "result": "little or no irreversible disruption"}]}, {"smiles": "[H]/N=C(/N)N[C@H]1[C@H](O)[C@@H](O)[C@H](O[C@@H]2O[C@@H](C)[C@](O)(C=O)[C@H]2O[C@@H]2O[C@@H](CO)[C@H](O)[C@@H](O)[C@@H]2NC)[C@@H](N/C(N)=N\\[H])[C@@H]1O", "note": "[Streptomycin sulfate, streptomycin sulfate]", "values": [{"measurement": "effect on amount and average length of elongation products", "setting": "[1]; 40 mM, 40 mM sodium sulfate control little decrease", "result": "dramatically reduced"}]}, {"smiles": "Cc1cn([C@H]2C=C[C@@H](CO)O2)c(=O)[nH]c1=O", "note": "[d4T, 3′ deoxy-2′,3′-didehydrothymidine]", "values": [{"measurement": "telomere length", "setting": "Tetrahymena cells [3]", "result": "produced shortened telomeres"}]}, {"smiles": "Nc1nc2c(ncn2[C@@H]2O[C@H](COP(=O)(O)OP(=O)(O)OP(=O)(O)O)[C@@H](O)[C@@H]2O)c(=O)[nH]1", "note": "[Ara-GTP, arabinofuranyl-guanosine triphosphate]", "values": [{"measurement": "IC50", "setting": "[1]; standard assay, 32P-dGTP / 32P-NTP incorporation, 30 min at 30° C., read-out: concentration at which 50% inhibition of incorporation of 32P label occurred", "result": 0.7, "unit": "µM"}, {"measurement": "position on the telomerase RNA template of strongest chain termination", "setting": "[1]", "result": 4}]}, {"smiles": "Nc1nc2c(ncn2[C@H]2C[C@H](O)[C@@H](COP(=O)(O)OP(=O)(O)OP(=O)(O)O)O2)c(=O)[nH]1", "note": "[dGTP]", "values": [{"measurement": "Km", "setting": "[1]", "result": "1 to 2", "unit": "µM"}]}, {"smiles": "Cc1cn([C@H]2CC[C@@H](COP(=O)(O)OP(=O)(O)OP(=O)(O)O)O2)c(=O)[nH]c1=O", "note": "[ddTTP]", "values": [{"measurement": "IC50", "setting": "[1]", "result": 5, "unit": "µM"}]}, {"smiles": "Nc1ncnc2c1ncn2[C@H]1CC[C@@H](COP(=O)(O)OP(=O)(O)OP(=O)(O)O)O1", "note": "[ddATP]", "values": [{"measurement": "effect on the telomerase reaction", "setting": "[1]", "result": "no significant effects"}]}, {"smiles": "CO[C@H]1/C=C/O[C@@]2(C)Oc3c(C)c(O)c4c(O)c(c(/C=N/N5CCN(C)CC5)c(O)c4c3C2=O)NC(=O)/C(C)=C\\C=C\\[C@H](C)[C@H](O)[C@@H](C)[C@@H](O)[C@@H](C)[C@H](OC(C)=O)[C@@H]1C", "note": "[rifampin]", "values": [{"measurement": "effect on quantitative incorporation of label and banding pattern", "setting": "[1]; concentrations up to 100 μg/ml", "result": "did not affect the quantitative incorporation of label or change the banding pattern"}]}, {"smiles": "Nc1nc2c(ncn2[C@H]2CC[C@@H](COP(=O)(O)OP(=O)(O)OP(=O)(O)O)O2)c(=O)[nH]1", "note": "[ddGTP]", "values": [{"measurement": "IC50", "setting": "[1]", "result": "< 0.1", "unit": "µM"}]}]}
